The assay deals with T1, acetylcholinesterase enzyme from an electric ray Tetronarce californica (Tetronarce californica, UniProt P04058).
T1 construct: purchased Sigma-Aldrich
The assay can be described thus: Acetylcholinesterase inhibition assay (Ellman method, 96-well microplates). In kind it is biochemical. The following applies: for inhibition percentage toward the AChE enzyme: concentration not given. The method, then:
An acetylcholinesterase enzyme from an electric ray Tetronarce californica (Sigma-Aldrich, St. Louis, MO, USA) was used for the experiments. The in vitro AChE inhibition assay was performed in 96-well microplates according to the methodology proposed by Ellman et al. and Senol et al. with some modifications. The alkaloid fraction and alkaloids were tested at concentrations of 2.8; 5.6; 11.2; 22.5; 45.0 and 90.0 µg/mL. Initially, 20 µL of each sample from the stock solution (1 mg/mL) were added and serial dilutions were performed. Then, 150 µL of a sodium phosphate buffer pH = 8 ([…]), 20 µL of 5,5’-dithio-bis(2- nitrobenzoic)acid (DTNB, 0.0025 M), and 20 µL of the acetylcholinesterase enzyme (1 U/mL) were added subsequently to each well at 25 °C and left for 15 min. The reaction was initiated by the addition of 10 µL of […] (AChI) (0.1 M). Neostigmine (0.28–9.0 μg/mL) was used as a positive control.
A thiocholine formed by the enzymatic hydrolysis of the AChI, reacts with the DTNB giving rise to a yellow 5-mercapto-2-nitrobenzoate anion. Concentration of the latter in each well was measured as absorbance at 405 nm by using a 96-well microplate reader ELx800^TM (Bio Tek Instruments, Inc., Winooski, VT, USA). The transformation was monitored for 30 min at 5-min intervals. The inhibition curve was plotted as the inhibition percent vs. concentration. All assays were performed in triplicate. Statistical analysis was performed with GraphPad Prism 7.0® software.

[1] abbreviates: TcAChE, Ellman, 25 °C, pH 8, triplicate, read-out: IC50 for the acetylcholinesterase (AChE) inhibition assay.

SMILES strings stand for the structures. Like-named read-outs stand apart in the source and are kept apart here.

T1 sequence (P04058 22-586): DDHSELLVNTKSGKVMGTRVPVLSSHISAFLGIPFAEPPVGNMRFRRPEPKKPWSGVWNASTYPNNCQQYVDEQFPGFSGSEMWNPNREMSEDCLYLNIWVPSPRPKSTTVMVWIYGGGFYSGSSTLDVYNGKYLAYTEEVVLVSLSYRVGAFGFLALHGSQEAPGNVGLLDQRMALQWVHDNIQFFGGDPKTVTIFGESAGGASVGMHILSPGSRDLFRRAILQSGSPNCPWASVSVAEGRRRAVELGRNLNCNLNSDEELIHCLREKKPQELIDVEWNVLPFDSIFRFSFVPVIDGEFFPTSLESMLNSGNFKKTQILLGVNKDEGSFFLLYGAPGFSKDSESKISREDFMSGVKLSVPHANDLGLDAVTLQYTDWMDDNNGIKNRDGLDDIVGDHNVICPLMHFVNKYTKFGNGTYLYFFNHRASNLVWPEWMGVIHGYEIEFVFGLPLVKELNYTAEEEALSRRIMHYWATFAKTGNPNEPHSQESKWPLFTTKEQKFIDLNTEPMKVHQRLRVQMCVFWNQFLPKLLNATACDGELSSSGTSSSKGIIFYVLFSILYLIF

The term IC50 denotes the concentration that inhibits the measured activity by half. With `COc1cc2c(cc1OC)-c1cc3ccc(OC)c(OC)c3c[n+]1CC2` [palmatine 3, palmatine], the IC50 under setting [1] was 35.25 ± 0.04 µM. Further, where the note is “TcAChE”, the “inhibition percentage toward the AChE enzyme” value was “above 70%”.
With `COc1cc2c3c(c1OC)C1(C=CC(=O)C=C1)CC3NCC2` (stereo not shown) [stepharine 2, stepharine], the IC50 under setting [1] is 61.24 ± 0.03 µM. Further, the “inhibition percentage toward the AChE enzyme” value (TcAChE) is given as “above 70%”.
The compound `CN(CCCCNC(=O)/C=C/c1ccccc1)CCCNC(=O)/C=C/c1ccccc1` [5-N-methylmaytenine 4, 5-N-methylmaytenine] displayed an IC50 of 19.55 ± 0.09 µM. Further, for the setting “TcAChE”, the “inhibition percentage toward the AChE enzyme” value is given as “above 70%”.
With `COc1cc2c(cc1O)C(Cc1ccc(O)c(Oc3cc4c(cc3OC)CCNC4Cc3ccc(O)cc3)c1)NCC2` (single isomer, unassigned) [lindoldhamine isomer 1, Lindoldhamine isomer], the IC50 under setting [1] stood at 39.38 ± 0.08 µM. For the same compound, where the note is “TcAChE”, the “inhibition percentage toward the AChE enzyme” value is recorded as “above 70%”.
As to `CN(C)C(=O)Oc1cccc([N+](C)(C)C)c1` [neostigmine, reference compound], the IC50 under setting [1] was found to be 3.72 ± 0.03 µM. For the same compound, where the note is “TcAChE”, the “inhibition percentage toward the AChE enzyme” value is listed as “above 70%”.

These data come from PMC9144276, “In Vitro and In Silico Evaluation of Cholinesterase Inhibition by Alkaloids Obtained from Branches of Abuta panurensis Eichler” (Molecules, 2022).
